Reference: ChEMBL document CHEMBL5244229, “Thiazole-containing compounds as therapeutic targets for cancer therapy” (Eur J Med Chem, 2020)
≈ marks a conversion by molar mass, not a printed value.

Key:
HepG2 [1] = test: Antitumor activity against human HepG2 cells; format: functional, cell-based
MCF7 [2] = test: Antitumor activity against human MCF7 cells; format: functional, cell-based
Colon cell line = test: Cytotoxicity against human Colon cell line; format: functional, cell-based
HepG2 [3] = test: Cytotoxicity against human HepG2 cells assessed as reduction in cell viability incubated for 24 hrs by WST-1 assay; format: functional, cell-based; details: HepG2, 24 h
MDA-MB-435 = test: Cytotoxicity against human MDA-MB-435 cells; format: functional, cell-based
SF-295 = test: Cytotoxicity against human SF-295 cells; format: functional, cell-based
HL-60 = test: Cytotoxicity against human HL-60 cells; format: functional, cell-based
[4] = test system: Panel NCI-60 (60 carcinoma cell lines); test: Antiproliferative activity against human Panel NCI-60 (60 carcinoma cell lines) assessed as cell growth inhibition; format: functional
HeLa [5] = test: Antiproliferative activity against human HeLa cells assessed as reduction in cell growth after 72 hrs; format: functional, cell-based
HepG2 [6] = test: Cytotoxicity against human HepG2 cells assessed as reduction in cell viability measured after 48 hrs by MTS assay; format: functional, cell-based; details: HepG2, 48 h
HepG2 [7] = test: Cytotoxicity against human HepG2 cells; format: functional, cell-based
[8] = Cytotoxicity against human SNU-216 cells; format: functional, cell-based
MKN-74 = test: Cytotoxicity against human MKN-74 cells; format: functional, cell-based
SK-HEP1 = test: Cytotoxicity against human SK-HEP1 cells; format: functional, cell-based
AGS = test: Cytotoxicity against human AGS cells; format: functional, cell-based
SNU-638 = test: Cytotoxicity against human SNU-638 cells; format: functional, cell-based
Hep 3B2 = test: Cytotoxicity against human Hep3B cells; format: functional, cell-based
NCI-H460 [9] = test: Cytotoxicity against human NCI-H460 cells assessed as reduction in cell viability incubated for 48 hrs by MTT assay; format: functional
MCF7 [10] = test: Cytotoxicity against human MCF7 cells assessed as reduction in cell viability incubated for 48 hrs by MTT assay; format: functional
MCF7 [11] = test: Cytotoxicity against human MCF7 cells; format: functional, cell-based
A549 [12] = test: Anticancer activity against human A549 cells at 5 microg/ml relative to control; format: functional; details: dose 5 µg/ml
HEK293 = test: Antiproliferative activity against human HEK293 cells; format: functional
A549 [13] = test: Antiproliferative activity against human A549 cells; format: functional, cell-based
HCT-116 [14] = test: Antiproliferative activity against human HCT-116 cells assessed as reduction in cell viability; format: functional, cell-based
MDA-MB-231 [15] = test: Cytotoxicity against human MDA-MB-231 cells assessed as reduction in cell viability by MTT assay; format: functional, cell-based
HCT-116 [16] = test: Cytotoxicity against human HCT-116 cells assessed as reduction in cell viability by MTT assay; format: functional, cell-based
HeLa [17] = test: Cytotoxicity against human HeLa cells assessed as reduction in cell viability by MTT assay; format: functional, cell-based
MCF7 [18] = test: Cytotoxicity against human MCF7 cells assessed as reduction in cell viability by MTT assay; format: functional, cell-based
SF-268 [19] = test: Antitumor activity against human SF-268 cells; format: functional
MDA-MB-231 [20] = test: Antiproliferative activity against human MDA-MB-231 cells assessed as reduction in cell viability incubated for 2 days by MTT assay; format: functional, cell-based; details: MDA-MB-231, 48 h
Jurkat = test: Antiproliferative activity against human Jurkat cells assessed as reduction in cell viability incubated for 2 days by MTT assay; format: functional, cell-based; details: 48 h
HepG2 [21] = test: Anticancer activity against human HepG2 cells; format: functional, cell-based
NCI-H460 [22] = test: Cytotoxicity against human NCI-H460 cells assessed as reduction in cell viability by MTS assay; format: functional
MCF7 [23] = test: Cytotoxicity against human MCF7 cells assessed as reduction in cell viability by MTS assay; format: functional
SF-268 [24] = test: Cytotoxicity against human SF-268 cells assessed as reduction in cell viability by MTS assay; format: functional

C/C(=N/Nc1nc(C)c(/N=N/c2ccccc2)s1)c1nnn(-c2ccccc2)c1C
IC50 (HepG2 [1]): 3410 nM | IC50 (MCF7 [2]): 1120 nM

COc1ccc(-c2csc(NC(=O)CN3CCc4ccccc4C3)n2)cc1
LC50 (Colon cell line; Homo sapiens, Colon cell line): 28 µg/mL (≈ 73.8 µM)

C/C(=N/Nc1nc(C)c(/N=N/c2ccccc2)s1)c1sc(N)nc1C
IC50 (HepG2 [3]): 840 nM

Cc1ccc2[nH]cc3c(=O)n(-c4nc5ccccc5s4)nc-3c2c1
IC50 (MDA-MB-435): < 5 µg/mL | IC50 (SF-295): < 5 µg/mL | IC50 (HL-60): < 5 µg/mL

Nc1nc(-c2ccc(Oc3ccc(Cl)c(Cl)c3)cc2)cs1
IC50 (MDA-MB-435): 759 nM

Cn1cc(-c2nc(-c3c[nH]c4ccccc34)cs2)c2cccnc21
GI50 [4]: 40 nM

COc1ccc(/C=N/Nc2nc(-c3ccccc3)cs2)cc1
IC50 (HeLa [5]): 11.1 µg/mL (≈ 35.9 µM)

COc1ccc(/C=C(/C#N)c2nc(-c3cc4ccccc4oc3=O)cs2)cc1OC
IC50 (HepG2 [6]): 2890 nM

C=C(NC(=O)C(=C)NC(=O)c1ccc2c(n1)-c1coc(n1)C(=O)NC(=O)CNC(=O)c1coc(n1)C(=C)NC(=O)[C@H](C(C)(C)O)NC(=O)C(=O)NC(=O)c1nc(oc1C)/C(=C\C)NC[C@H](C(C)C)NC(=O)c1csc-2n1)C(N)=O
IC50 (HepG2 [7]): 1300 nM | IC50 [8]: 880 nM | IC50 (MKN-74): 2430 nM | IC50 (SK-HEP1): 990 nM | IC50 (AGS): 990 nM | IC50 (SNU-638): 750 nM | IC50 (Hep 3B2): 1040 nM

COc1ccc(/C=C(/C#N)c2nc(-c3cc4ccccc4oc3=O)cs2)cc1
IC50 (HepG2 [6]): 2330 nM

CC1=CS/C(=C(/C#N)C(=O)N/N=C(\C)C2CC[C@@]3(C)[C@]4(C)CC=C5C[C@@H](O)CC[C@]5(C)[C@@]4(C)CC[C@]23C)N1c1ccccc1 (stereo partly drawn)
GI50 (NCI-H460 [9]): 10 nM | GI50 (MCF7 [10]): 20 nM

O=c1[nH]cc(F)c(=O)[nH]1 [FLUOROURACIL]
IC50 (MCF7 [11]): 5.5 µg/mL (≈ 42.3 µM) | Activity (A549 [12]): 57%

C/C=C1\NC(=O)[C@H]([C@@H](C)O)NC(=O)c2csc(n2)-c2ccc(-c3nc(-c4nc(C(=O)N/C(=C/C)C(=O)NC[C@H](C)O)cs4)cs3)nc2-c2csc(n2)[C@H]([C@@H](C)O)NC(=O)c2csc(n2)[C@H](C(C)C)NC(=O)c2csc1n2
IC50 (HepG2 [7]): 910 nM | IC50 [8]: 440 nM | IC50 (MKN-74): 7300 nM | IC50 (SK-HEP1): 830 nM | IC50 (AGS): 500 nM | IC50 (SNU-638): 410 nM | IC50 (Hep 3B2): 940 nM

O=c1c2c[nH]c3ccc(Br)cc3c-2nn1-c1nc2ccccc2s1
IC50 (MDA-MB-435): < 5 µg/mL | IC50 (SF-295): < 5 µg/mL | IC50 (HL-60): < 5 µg/mL

CCCCCCCC(=O)SCC/C=C/[C@@H]1CC(=O)NCc2nc(cs2)C2=N[C@@](C)(CS2)C(=O)N[C@@H](c2ccccc2)C(=O)O1
GI50 (HEK293): > 100000 nM | GI50 (A549 [13]): 1460 nM | IC50 (HCT-116 [14]): 390 nM

Cc1ccc(S(=O)(=O)C(Cl)(Cl)c2nc(C)sc2[N+](=O)[O-])cc1
CC50 (HepG2 [7]): < 2500 nM | CC50 (Colon cell line; Homo sapiens, Colon cell line): 1000 nM

Nc1ccccc1C(=O)Nn1c(-c2ccc(Cl)cc2)cs/c1=N/c1ccc([N+](=O)[O-])cc1
IC50 (MDA-MB-231 [15]): 5370 nM | IC50 (HCT-116 [16]): 5370 nM | IC50 (HeLa [17]): 5370 nM | IC50 (MCF7 [18]): 5370 nM

CC(=O)C(C(C)=O)=C1SC(n2nc(O)cc2N)=CN1c1ccccc1
GI50 (SF-268 [19]): 10 nM

COc1ccc(/N=N/c2sc(N/N=C(/C)c3sc(N)nc3C)nc2C)cc1
IC50 (HepG2 [3]): 500 nM

CCC[C@H](NS(=O)(=O)c1ccc(C)cc1)[C@]1(c2ccccc2Br)N=C(SCC)SC1=O
IC50 (MDA-MB-231 [20]): 41000 nM | IC50 (Jurkat): 19000 nM

O=C1NC(=O)/C(=C/c2ccccc2Cl)S1
IC (Colon cell line): 10 µg/mL

C/C(=N/Nc1nc(C)c(/N=N/c2ccc(Cl)cc2)s1)c1sc(N)nc1C
IC50 (HepG2 [3]): 520 nM

Cc1ccc(-c2nc(C(=O)Nc3ccc([N+](=O)[O-])cc3)cs2)cc1
IC50 (HepG2 [21]): 10800 nM | IC50 (Colon cell line; Homo sapiens, Colon cell line): 10800 nM

C/C(=N\N=c1/scc(-c2ccc(Br)cc2)n1-c1ccccc1)C1CC[C@@]2(C)[C@]3(C)CC=C4C[C@@H](O)CC[C@]4(C)[C@@]3(C)CC[C@]12C (stereo partly drawn)
GI50 (NCI-H460 [22]): 600 nM | GI50 (MCF7 [23]): 600 nM | GI50 (SF-268 [24]): 400 nM
